Measurements reported in PubChem BioAssay AID248 (DTP/NCI, 2004).
“And” between values parts separate entries of the source, which are not always exact repeats. Equal entries are not always repeated. Inconclusive results and toxic doses are left out. No stated cut-off is given here; in the data, active means T/C of 150% or more; inactive means T/C below 125%.

System: L1210 leukemia ip in BDF1 mice, survival T/C
Assay: NCI In Vivo Anticancer Drug Screen. Data for tumor model L1210 Leukemia (intraperitoneal) in B6D2F1 (BDF1) mice
Details: endpoint: mean survival time, higher = longer survival
In short: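 Ratio derived from survival: compound-dosed mice over vehicle-dosed mice, all bearing a transplantable tumor.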

[1] = dose: 100.0 mg/kg/injection, schedule: Q04DX003 (ip), vehicle: saline with Tween-80
[2] = dose: 200.0 mg/kg/injection, schedule: Q04DX003 (ip), vehicle: saline with Tween-80
[3] = dose: 400.0 mg/kg/injection, schedule: Q04DX003 (ip), vehicle: saline with Tween-80
[4] = dose: 100.0 mg/kg/injection, schedule: Q01DX009 (ip), vehicle: Klucel (hydroxypropylcellulose) (HPC)
[5] = dose: 100.0 mg/kg/injection, schedule: Q04DX003 (ip), vehicle: Klucel (hydroxypropylcellulose) (HPC)
[6] = dose: 200.0 mg/kg/injection, schedule: Q01DX009 (ip), vehicle: Klucel (hydroxypropylcellulose) (HPC)
[7] = dose: 400.0 mg/kg/injection, schedule: Q01DX009 (ip), vehicle: Klucel (hydroxypropylcellulose) (HPC)
[8] = dose: 100.0 mg/kg/injection, schedule: Q04DX002 (ip), vehicle: Klucel (hydroxypropylcellulose) (HPC)
[9] = dose: 200.0 mg/kg/injection, schedule: Q04DX002 (ip), vehicle: Klucel (hydroxypropylcellulose) (HPC)
[10] = dose: 400.0 mg/kg/injection, schedule: Q04DX002 (ip), vehicle: Klucel (hydroxypropylcellulose) (HPC)
[11] = dose: 25.0 mg/kg/injection, schedule: Q01DX009 (ip), vehicle: Klucel (hydroxypropylcellulose) (HPC)
[12] = dose: 50.0 mg/kg/injection, schedule: Q01DX009 (ip), vehicle: Klucel (hydroxypropylcellulose) (HPC)
[13] = dose: 50.0 mg/kg/injection, schedule: Q01DX001 (ip), vehicle: saline
[14] = dose: 100.0 mg/kg/injection, schedule: Q01DX001 (ip), vehicle: saline
[15] = dose: 200.0 mg/kg/injection, schedule: Q01DX001 (ip), vehicle: saline

Measured: T/C

Clc1nc2nc(Cl)n(Cl)c2nc1Cl
inactive: dose: 50.0 mg/kg/injection, schedule: Q01DX009 (ip), vehicle: saline with Tween-80 96 % of control | dose: 100.0 mg/kg/injection, schedule: Q01DX009 (ip), vehicle: saline with Tween-80 95 % of control | [1] 98 % of control | dose: 200.0 mg/kg/injection, schedule: Q01DX009 (ip), vehicle: saline with Tween-80 91 % of control | [2] 89 % of control | [3] 96 % of control

O=C(O)/C(=C\CCCC/C=C(\CCO)C(=O)O)CCO
inactive: [4] 102 % of control | [5] 94 % of control | [6] 99 % of control | dose: 200.0 mg/kg/injection, schedule: Q04DX003 (ip), vehicle: Klucel (hydroxypropylcellulose) (HPC) 102 % of control | [7] 102 % of control | dose: 400.0 mg/kg/injection, schedule: Q04DX003 (ip), vehicle: Klucel (hydroxypropylcellulose) (HPC) 96 % of control

O=C1C=C(c2ccccc2)C(=O)C2(c3ccccc3)C=CCC(c3ccccc3)C12 (stereo not given)
inactive: [8] 113 % of control | [9] 113 % of control | [10] 95 % of control

Fc1ccc(NC(=S)NCCN2CCCC2)cc1
inactive: [11] 100 % of control | [12] 117 % of control | [4] 100 % of control and 102 % of control

COC(=O)C(C(=O)OC)=C(C(=O)OC)C(=O)OC
inactive: [1] 89 % of control | [2] 94 % of control | [3] 93 % of control

N#CC(c1ccccc1)c1ccccc1
inactive: dose: 100.0 mg/kg/injection, schedule: Q01DX001 (ip), vehicle: other 97 % of control | dose: 200.0 mg/kg/injection, schedule: Q01DX001 (ip), vehicle: other 90 % of control | dose: 400.0 mg/kg/injection, schedule: Q01DX001 (ip), vehicle: other 95 % of control

O=C1c2ccccc2C(=O)N1CC(=O)N(C(=O)NC1CCCCC1)C1CCCCC1
inactive: dose: 100.0 mg/kg/injection, schedule: Q01DX001 (ip), vehicle: water 109 % of control | dose: 100.0 mg/kg/injection, schedule: Q01DX009 (ip), vehicle: water 103 % of control | dose: 100.0 mg/kg/injection, schedule: Q04DX003 (ip), vehicle: water 94 % of control | dose: 200.0 mg/kg/injection, schedule: Q01DX001 (ip), vehicle: water 104 % of control | dose: 200.0 mg/kg/injection, schedule: Q01DX009 (ip), vehicle: water 95 % of control | dose: 200.0 mg/kg/injection, schedule: Q04DX003 (ip), vehicle: water 96 % of control | dose: 400.0 mg/kg/injection, schedule: Q01DX001 (ip), vehicle: water 98 % of control | dose: 400.0 mg/kg/injection, schedule: Q01DX009 (ip), vehicle: water 103 % of control | dose: 400.0 mg/kg/injection, schedule: Q04DX003 (ip), vehicle: water 97 % of control

CN(C(=O)CCCc1ccc(N(CCCl)CCCl)cc1)c1ccccc1
inactive: dose: 2.0 mg/kg/injection, schedule: Q12HX018 (ip), vehicle: Klucel (hydroxypropylcellulose) (HPC) 100 % of control | dose: 4.0 mg/kg/injection, schedule: Q12HX018 (ip), vehicle: Klucel (hydroxypropylcellulose) (HPC) 96 % of control | dose: 8.0 mg/kg/injection, schedule: Q12HX018 (ip), vehicle: Klucel (hydroxypropylcellulose) (HPC) 107 % of control | dose: 8.0 mg/kg/injection, schedule: Q12HX018 (ip), vehicle: other 110 % of control | dose: 10.0 mg/kg/injection, schedule: Q12HX018 (ip), vehicle: other 101 % of control | dose: 12.0 mg/kg/injection, schedule: Q12HX018 (ip), vehicle: other 100 % of control

CCC[CH2][Pb]([CH2]CCC)([CH2]CCC)[n]1ccnc1
inactive: dose: 1.5 mg/kg/injection, schedule: Q01DX009 (ip), vehicle: Klucel (hydroxypropylcellulose) (HPC) 95 % of control | dose: 3.0 mg/kg/injection, schedule: Q01DX009 (ip), vehicle: Klucel (hydroxypropylcellulose) (HPC) 96 % of control | dose: 6.0 mg/kg/injection, schedule: Q01DX009 (ip), vehicle: Klucel (hydroxypropylcellulose) (HPC) 90 % of control | dose: 12.5 mg/kg/injection, schedule: Q04DX003 (ip), vehicle: Klucel (hydroxypropylcellulose) (HPC) 97 % of control | dose: 25.0 mg/kg/injection, schedule: Q04DX003 (ip), vehicle: Klucel (hydroxypropylcellulose) (HPC) 97 % of control | [13] 98 % of control | dose: 50.0 mg/kg/injection, schedule: Q04DX003 (ip), vehicle: Klucel (hydroxypropylcellulose) (HPC) 86 % of control | [14] 95 % of control | [15] 93 % of control

COc1ccc(OC)c(/C=C/c2ccc(NC(=O)C(Cl)(Cl)Cl)cc2)c1
inactive: [4] 98 % of control | [6] 93 % of control | [7] 102 % of control

CSc1nc(/N=N/Nc2nc(SC)nn2C)n(C)n1
inactive: dose: 100.0 mg/kg/injection, schedule: Q04DX002 (ip), vehicle: saline with Tween-80 93 % of control | dose: 200.0 mg/kg/injection, schedule: Q04DX002 (ip), vehicle: saline with Tween-80 93 % of control | dose: 400.0 mg/kg/injection, schedule: Q04DX002 (ip), vehicle: saline with Tween-80 97 % of control

N#CC(C#N)=NNc1ccc(S(=O)(=O)c2ccc(NN=C(C#N)C#N)cc2)cc1
inactive: [1] 103 % of control | [2] 97 % of control | [3] 97 % of control

OB1OB(OB2OB(O)O2)O1
inactive: [13] 92 % of control | [14] 92 % of control | [15] 108 % of control | dose: 400.0 mg/kg/injection, schedule: Q01DX001 (ip), vehicle: saline 113 % of control

CSc1nc(C(=O)O)c(C)c(=O)[nH]1
inactive: dose: 100.0 mg/kg/injection, schedule: Q01DX Z (ip), vehicle: saline 109 % of control | dose: 200.0 mg/kg/injection, schedule: Q01DX Z (ip), vehicle: saline 100 % of control

CC(=O)C(=O)C=C(C(F)(F)F)C(F)(F)F
inactive: [1] 113 % of control | [2] 106 % of control | [3] 101 % of control

O=C1C2C(C(=O)N1c1ccccc1)C1c3ccccc3C2C2CCCCN21 (stereo not given)
inactive: [11] 102 % of control | [12] 105 % of control | [4] 92 % of control | [5] 92 % of control

NC(=S)N/N=C/c1cc(Br)cc(Br)c1O
inactive: [8] 95 % of control | [9] 91 % of control | [10] 100 % of control

CC(C)NC(=O)NS(=O)(=O)c1ccc(N)cc1
inactive: dose: 100.0 mg/kg/injection, schedule: Q04DX003 (ip), vehicle: saline 94 % of control | dose: 200.0 mg/kg/injection, schedule: Q04DX003 (ip), vehicle: saline 103 % of control | dose: 400.0 mg/kg/injection, schedule: Q04DX003 (ip), vehicle: saline 110 % of control

O=c1oc2c([N+](=O)[O-])cc([N+](=O)[O-])cc2c2ccccc12
inactive: dose: 50.0 mg/kg/injection, schedule: Q01DX001 (ip), vehicle: carboxymethylcellulose (CMC) 105 % of control | dose: 100.0 mg/kg/injection, schedule: Q01DX001 (ip), vehicle: carboxymethylcellulose (CMC) 94 % of control | dose: 200.0 mg/kg/injection, schedule: Q01DX001 (ip), vehicle: carboxymethylcellulose (CMC) 100 % of control | dose: 400.0 mg/kg/injection, schedule: Q01DX001 (ip), vehicle: carboxymethylcellulose (CMC) 92 % of control
